In ChEMBL document CHEMBL1201862, “PubChem BioAssay data set” (2004) one finds EC50, AC50 and IC50 data, which are given here for 16 molecules.

For experiment [1], the system named is BJ. Briefly: cells. The class given is functional, cell-based. Particulars: Homo sapiens.
For experiment [2], the system named is BJ. Briefly: BJ-TERT fibroblast viability loss – cell-based, RAS-independent, luminescence, dose response (AID 1933). The class given is functional. Particulars: Homo sapiens.
Experiment [3] in a line: DRD fibroblast viability loss – cell-based, non-viral oncogenic, luminescence, dose response (AID 1934). The class given is functional. To be noted: Homo sapiens.
Experiment [4] deals with BJ. Nature of the experiment: BJ-TERT-LT-ST fibroblast viability loss – cell-based, RAS-independent, luminescence, dose response (AID 1935).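 Note: BJ fibroblasts immortalized with TERT plus LT and ST oncogenes.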 The class given is functional. Particulars: Homo sapiens.
Experiment [5] addresses Cytochrome P450 2D6 (Homo sapiens, UniProt P10635).
Experiment [6] deals with Cytochrome P450 2C19 (Homo sapiens, UniProt P33261). Nature of the experiment: Cytochrome panel assay with activity outcomes. Panel member name: p450-cyp2c19 Compounds with AC50 equal or less than 10 uM are considered active. It is filed as functional. To be noted: read-out: AC50.
For experiment [7], the target named is Cytochrome P450 2C9 (Homo sapiens, UniProt P11712).
For experiment [8], the target named is Large T antigen (Simian virus 40, UniProt P03070). It is filed as functional, Betapolyomavirus macacae.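 Note: Confirmatory-stage PubChem screen for compounds that inhibit SV40 T antigen.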
Experiment [9] can be described thus: Luminescence Cell-Based Dose Confirmation HTS to Identify Inhibitors of Platelet Dense Granule Release. [Related pubchem assays: 1663 (Primary HTS), 1678 (Summary of Project)]. It is filed as functional.
Experiment [10] has as its target Luciferin 4-monooxygenase (Photinus pyralis, UniProt P08659). Nature of the experiment: inhibition of purified Photinus pyralis luciferase – biochemical, luminescence, dose response (AID 1891).
Experiment [11] concerns the target T1, Rac GTPase-activating protein 1 (Homo sapiens, UniProt Q9H0H5).
T1 sequence (Q9H0H5 whole entry): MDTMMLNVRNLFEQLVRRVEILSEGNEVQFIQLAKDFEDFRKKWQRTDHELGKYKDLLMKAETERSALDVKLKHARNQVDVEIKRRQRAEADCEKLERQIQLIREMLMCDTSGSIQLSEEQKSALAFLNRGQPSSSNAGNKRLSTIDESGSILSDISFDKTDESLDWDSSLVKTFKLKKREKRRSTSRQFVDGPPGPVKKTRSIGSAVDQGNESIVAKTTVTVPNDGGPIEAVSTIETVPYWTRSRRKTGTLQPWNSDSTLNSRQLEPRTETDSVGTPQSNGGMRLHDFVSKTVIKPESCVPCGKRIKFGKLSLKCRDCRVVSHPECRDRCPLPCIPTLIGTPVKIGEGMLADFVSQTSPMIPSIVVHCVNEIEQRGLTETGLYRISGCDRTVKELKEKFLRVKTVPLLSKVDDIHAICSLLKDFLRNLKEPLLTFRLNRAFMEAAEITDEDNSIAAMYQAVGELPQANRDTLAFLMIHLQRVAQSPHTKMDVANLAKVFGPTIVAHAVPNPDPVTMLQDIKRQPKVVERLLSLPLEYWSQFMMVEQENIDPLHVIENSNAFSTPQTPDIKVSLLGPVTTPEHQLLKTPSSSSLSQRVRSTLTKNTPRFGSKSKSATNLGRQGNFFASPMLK
Nature of the experiment: blockers of MgcRacGAP-driven Rac1 GTP hydrolysis – biochemical, ADP Hunter fluorescence, primary and confirmatory, confirmation (AID 624330). The class given is functional.

Experiment [12] deals with INS1. Nature of the experiment: INS-1E survival protection against cytokine death – cell-based, luminescence, retest, dose response (AID 449756).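 Note: cell death triggered by IL-1 beta plus TNF-alpha plus IFN-gamma mixture; protective hits raise ATP signal compared with cytokine alone wells.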 It is filed as functional. To be noted: Rattus norvegicus.
Experiment [13] has as its target Eukaryotic translation initiation factor 4E (Mus musculus, UniProt P63073). Nature of the experiment: blockers of eIF4G binding by eIF4E – biochemical, TR-FRET, dose response (AID 855).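 Note: potency for disrupting eIF4E binding to eIF4GI seen as loss of FRET.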 It is filed as functional.
The target in experiment [14] is T2, Zinc finger protein mex-5 (Caenorhabditis elegans, UniProt Q9XUB2).
T2 sequence (Q9XUB2 whole entry): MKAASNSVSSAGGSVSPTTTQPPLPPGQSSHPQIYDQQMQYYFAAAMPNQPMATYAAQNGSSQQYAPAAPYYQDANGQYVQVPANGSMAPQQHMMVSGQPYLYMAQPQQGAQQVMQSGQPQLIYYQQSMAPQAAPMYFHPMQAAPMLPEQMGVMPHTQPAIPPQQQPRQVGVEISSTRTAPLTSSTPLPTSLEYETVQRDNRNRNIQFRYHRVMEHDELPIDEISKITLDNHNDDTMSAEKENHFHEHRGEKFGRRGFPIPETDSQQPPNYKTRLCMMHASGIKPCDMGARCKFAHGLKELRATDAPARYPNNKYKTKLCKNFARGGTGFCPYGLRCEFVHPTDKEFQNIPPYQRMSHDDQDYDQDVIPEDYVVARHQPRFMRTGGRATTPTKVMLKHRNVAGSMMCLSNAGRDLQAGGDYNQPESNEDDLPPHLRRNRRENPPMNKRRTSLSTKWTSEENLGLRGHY
Briefly: potency of MEX-5 RNA-binding blockers – biochemical, C. elegans, fluorescence polarization, dose response (AID 1960). In general terms: Fluorescence polarisation rises when a labelled molecule tumbles more slowly, as on binding a larger partner.

Experiment [15] has as its target T3, RNA-binding protein pos-1 (Caenorhabditis elegans, UniProt G5EF15).
T3 sequence (G5EF15 whole entry): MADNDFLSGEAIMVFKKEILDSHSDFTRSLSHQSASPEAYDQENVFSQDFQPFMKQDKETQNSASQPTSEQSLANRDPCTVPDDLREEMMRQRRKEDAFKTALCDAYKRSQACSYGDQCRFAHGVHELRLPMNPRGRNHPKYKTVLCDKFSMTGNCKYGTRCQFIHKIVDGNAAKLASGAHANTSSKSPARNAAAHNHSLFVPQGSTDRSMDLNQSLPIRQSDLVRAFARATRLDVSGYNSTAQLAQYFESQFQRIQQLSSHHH
Briefly: disruptors of C. elegans POS-1 RNA interaction – biochemical, fluorescence polarization, dose response (AID 1964).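 Note: purified POS-1 fused to maltose binding protein made in E. coli; potency of compounds blocking POS-1 binding to fluorescent RNA.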

Calls of active or inactive are those of the source.

Sequence of Large T antigen (P03070 whole entry): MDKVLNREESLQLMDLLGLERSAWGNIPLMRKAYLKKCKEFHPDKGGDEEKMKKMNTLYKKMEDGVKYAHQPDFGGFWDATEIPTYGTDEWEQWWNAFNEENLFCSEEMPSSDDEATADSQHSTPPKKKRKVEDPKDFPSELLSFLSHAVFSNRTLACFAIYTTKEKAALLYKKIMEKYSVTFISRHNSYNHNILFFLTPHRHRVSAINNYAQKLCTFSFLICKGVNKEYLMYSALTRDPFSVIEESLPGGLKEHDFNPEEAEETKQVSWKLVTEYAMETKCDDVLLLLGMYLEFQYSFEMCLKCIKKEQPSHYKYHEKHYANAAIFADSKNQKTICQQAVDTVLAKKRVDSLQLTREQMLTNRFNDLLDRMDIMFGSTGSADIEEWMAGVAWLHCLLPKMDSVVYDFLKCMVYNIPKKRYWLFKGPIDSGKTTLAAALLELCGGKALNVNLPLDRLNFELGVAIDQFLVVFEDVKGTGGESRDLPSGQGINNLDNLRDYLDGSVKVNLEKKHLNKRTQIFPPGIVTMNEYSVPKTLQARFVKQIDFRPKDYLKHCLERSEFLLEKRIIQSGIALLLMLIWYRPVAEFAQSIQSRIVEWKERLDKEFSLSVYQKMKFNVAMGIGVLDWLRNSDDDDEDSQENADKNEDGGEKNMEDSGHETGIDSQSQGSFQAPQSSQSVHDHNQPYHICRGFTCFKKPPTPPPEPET
Sequence of Cytochrome P450 2C9 (P11712 whole entry): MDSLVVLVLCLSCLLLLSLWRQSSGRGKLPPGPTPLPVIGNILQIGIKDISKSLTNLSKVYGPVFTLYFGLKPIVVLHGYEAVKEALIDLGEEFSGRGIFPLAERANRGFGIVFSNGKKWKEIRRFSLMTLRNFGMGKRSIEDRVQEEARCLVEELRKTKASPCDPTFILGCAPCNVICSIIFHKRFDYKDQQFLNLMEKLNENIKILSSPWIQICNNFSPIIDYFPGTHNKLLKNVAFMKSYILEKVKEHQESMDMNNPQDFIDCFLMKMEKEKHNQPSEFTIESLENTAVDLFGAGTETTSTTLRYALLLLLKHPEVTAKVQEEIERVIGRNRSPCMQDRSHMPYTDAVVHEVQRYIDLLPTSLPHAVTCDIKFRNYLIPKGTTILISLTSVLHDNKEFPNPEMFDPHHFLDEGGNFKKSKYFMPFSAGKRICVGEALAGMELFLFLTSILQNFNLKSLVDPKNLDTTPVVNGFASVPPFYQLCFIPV
Sequence of Cytochrome P450 2D6 (P10635 whole entry): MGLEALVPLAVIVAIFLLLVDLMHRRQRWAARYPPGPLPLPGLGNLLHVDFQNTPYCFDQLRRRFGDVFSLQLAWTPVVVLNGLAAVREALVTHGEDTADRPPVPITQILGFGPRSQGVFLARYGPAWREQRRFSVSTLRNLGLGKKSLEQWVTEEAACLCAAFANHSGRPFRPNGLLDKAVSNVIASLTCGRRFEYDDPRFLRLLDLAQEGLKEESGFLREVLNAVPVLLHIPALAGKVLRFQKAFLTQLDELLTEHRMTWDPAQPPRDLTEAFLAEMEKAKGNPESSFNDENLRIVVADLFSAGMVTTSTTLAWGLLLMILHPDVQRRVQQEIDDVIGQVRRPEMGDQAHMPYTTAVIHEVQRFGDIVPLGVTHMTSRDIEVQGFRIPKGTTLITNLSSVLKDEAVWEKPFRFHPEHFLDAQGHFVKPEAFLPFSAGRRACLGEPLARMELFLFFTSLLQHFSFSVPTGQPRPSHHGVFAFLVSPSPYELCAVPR
Sequence of Cytochrome P450 2C19 (P33261 whole entry): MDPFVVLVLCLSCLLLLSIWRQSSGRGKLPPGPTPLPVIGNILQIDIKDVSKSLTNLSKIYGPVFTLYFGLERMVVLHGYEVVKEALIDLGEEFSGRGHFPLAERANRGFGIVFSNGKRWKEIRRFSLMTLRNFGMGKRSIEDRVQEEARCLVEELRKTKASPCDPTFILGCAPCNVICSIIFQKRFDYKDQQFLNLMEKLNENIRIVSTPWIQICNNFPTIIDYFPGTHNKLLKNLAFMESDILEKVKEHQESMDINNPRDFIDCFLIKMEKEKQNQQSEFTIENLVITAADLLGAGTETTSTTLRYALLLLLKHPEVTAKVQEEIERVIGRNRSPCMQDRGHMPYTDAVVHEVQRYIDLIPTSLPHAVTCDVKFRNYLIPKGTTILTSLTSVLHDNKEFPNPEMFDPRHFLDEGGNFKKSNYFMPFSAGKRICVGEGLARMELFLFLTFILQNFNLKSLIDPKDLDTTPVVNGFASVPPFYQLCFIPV
Sequence of Eukaryotic translation initiation factor 4E (P63073 whole entry): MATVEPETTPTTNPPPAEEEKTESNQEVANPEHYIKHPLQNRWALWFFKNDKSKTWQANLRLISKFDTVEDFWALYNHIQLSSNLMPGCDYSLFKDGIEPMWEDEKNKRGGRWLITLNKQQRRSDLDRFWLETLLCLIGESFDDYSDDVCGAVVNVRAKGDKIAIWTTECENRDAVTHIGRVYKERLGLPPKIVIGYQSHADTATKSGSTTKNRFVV
Sequence of Luciferin 4-monooxygenase (P08659 whole entry): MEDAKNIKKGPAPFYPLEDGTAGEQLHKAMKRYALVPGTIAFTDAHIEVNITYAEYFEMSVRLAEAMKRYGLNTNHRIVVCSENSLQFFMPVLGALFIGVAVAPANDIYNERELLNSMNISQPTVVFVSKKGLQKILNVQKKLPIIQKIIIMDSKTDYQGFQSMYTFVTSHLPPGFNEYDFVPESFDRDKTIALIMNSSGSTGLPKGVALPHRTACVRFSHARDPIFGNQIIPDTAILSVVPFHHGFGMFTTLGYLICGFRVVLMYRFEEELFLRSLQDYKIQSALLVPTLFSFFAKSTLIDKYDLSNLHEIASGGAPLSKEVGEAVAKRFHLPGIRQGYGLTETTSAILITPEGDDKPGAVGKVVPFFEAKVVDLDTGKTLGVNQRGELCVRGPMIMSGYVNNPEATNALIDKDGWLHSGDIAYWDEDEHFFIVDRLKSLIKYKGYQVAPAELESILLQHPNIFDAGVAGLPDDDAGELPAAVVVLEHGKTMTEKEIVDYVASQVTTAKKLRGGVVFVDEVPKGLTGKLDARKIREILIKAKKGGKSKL

A word on the EC50: it is the concentration that produces a half-maximal response. Regarding `Cc1cc(N2CCN(Cc3cn(C)nc3-c3ccccc3F)CC2)cc(C)n1`, the EC50 in experiment [1] is 101 µM (inconclusive); in experiment [2], 10.1 µM (active); in experiment [3], 16.3 µM (inconclusive); in experiment [4] it was 14.9 µM (active).

The AC50 is the concentration giving half of the maximal activity seen. With `Cc1noc(C)c1-c1nc(Nc2ccncc2)c2ccccc2n1`, the AC50 in experiment [5] is 12.6 µM (inconclusive); in experiment [6], 31.6 µM (inconclusive).

Take `CN1CCN(c2cc(N3CCCC3)c([N+](=O)[O-])cc2F)CC1`: the AC50 in experiment [7] was 0.1 µM (inconclusive); in [5] it was 14.1 µM (inconclusive).

As for `CN(C)c1ccc2nc3c(C(=O)O)cc(=O)c(O)c-3oc2c1`, the figures for the AC50 in experiment [5] and in experiment [6] were 3.16 µM (inconclusive) and 2.51 µM (inconclusive), respectively.

The term IC50 denotes the concentration needed to halve the response being measured. For `CN(C)c1ccc(NC(N)=S)cc1`, the IC50 in experiment [8] was 7.29 µM (active).

As for `COc1cc(NC(=O)c2ccccc2)c(OC)cc1NC(=O)CSc1nc(O)cc(C)c1C#N`, the EC50 in experiment [1] was 36 µM (inconclusive); in [9], 1.21 µM (active); in experiment [2], 73.6 µM (inconclusive); in [10], > 112 µM (not active); in experiment [3], 34.7 µM (active); in experiment [4] it was > 150 µM (not active).

As to `COc1cccc(-c2ccc3ncnc(NCc4ccc(OC)cc4OC)c3c2)c1`, the AC50 in experiment [7] is 0.501 µM (inconclusive); in experiment [5], 20 µM (inconclusive).

Take `COc1cc(/C=N/NC(=O)C(=O)NCC2CCCO2)ccc1O` (stereo not given): the IC50 was 32.3 µM (active) in experiment [11] and 11.7 µM (active) in experiment [8].

Consider `O=S1(=O)N=C(Nc2ccc(O)cc2)c2ccccc21`, for which the IC50 in experiment [11] is 22.3 µM (active); in experiment [8], 5.09 µM (active).

Consider `CN1CCN(NC(=O)c2cccc(F)c2)CC1`, for which the AC50 in [7] was 0.355 µM (inconclusive); in experiment [5], 39.8 µM (inconclusive); in experiment [6], 39.8 µM (inconclusive).

As to `Nc1c(N(CCC2=CCCCC2)C(=O)COc2ccc(F)cc2)c(=O)[nH]c(=O)n1Cc1ccccc1`, the AC50 in [12] is 4.49 µM (active).

Consider `Cc1cc(NC(=O)c2noc3c2CCc2ccccc2-3)n(-c2ccccc2)n1`, for which the IC50 in experiment [13] is > 64 µM (inactive).

Take `CCOc1ccc(N2C(=O)/C(=C/c3ccc(C)o3)C(=O)NC2=S)cc1`: the EC50 in experiment [14] and in experiment [15] was > 300 µM (not active) throughout. The IC50 in experiment [8] was 49.9 µM (active).

Consider `Cn1nccc1C(=O)Nc1ccc(Cl)cc1`, for which the AC50 in experiment [5] is 0.282 µM (inconclusive).

Consider `CCN(CC)c1ccc(/C=N/N2CCOCC2)cc1`, for which the values for the IC50 in experiment [11] and in [8] were 40.8 µM (active) and 5.98 µM (active), respectively.

`COc1ccccc1CNc1nc(-c2cc(C)n(C)c2C)cs1`: in experiment [13], the IC50 is 50 µM (inactive).
